The target in experiment [1] is T1, Human recombinant full-length MNK1 protein (Homo sapiens, UniProt Q9BUB5).
T1 construct: Human recombinant full-length MNK1 protein; purchased Thermo PR9138A
Description: MNK1 inhibitory activity assay (ADP-Glo in vitro kinase assay). The class given is biochemical. The settings on record: 10 concentration points. How it is done: MNK1 Inhibitory Activity Assay: Evaluation of the effects of compounds of the invention on […] (MNK1) activity using in vitro kinase assays. The experimental methods are summarized as follows: The in vitro activity of MNK1 was determined by measuring the level of ADP produced in the kinase reaction using the ADP-Glo Kinase Assay Kit. The reaction buffer consisted of the following components: 50 mM HEPES, pH 7.5, 10 mM MgCl2, 1 mM EGTA, 0.01% Brij35. Human recombinant full-length MNK1 protein (Thermo, Cat. No. PR9138A) was diluted with a reaction buffer to a 3.13 ng/uL kinase solution. The substrate reaction solution consisted of a substrate diluted to 0.75 mg/ml in reaction buffer ([…], available from […] Domestic Company), 2250 uM ATP, the ADP-Glo reagent and kinase assay solution from Promega kit (Promega, V9102). […] If the compound IC50 value is very low, the initial concentration of the compound can be lowered. To a 384-well assay plate (Thermo, Cat. No. 264706) were added 1 uL of compound solution and 2 uL of MNK1 kinase solution. The mixture was mixed well and incubated for 30 minutes at room temperature; then 2 uL of substrate reaction solution was added, the reaction mixture was incubated for 120 minutes at room temperature. The reaction was terminated after an equal volume of 5uLADP-Glo solution was added, and the remaining ATP was completely consumed. After mixing for 60 minutes at room temperature, 10 ul of the kinase assay solution was added, and the mixture was uniformly mixed, and allowed to stand at room temperature for 40 minutes in the dark. The detection solution converts ADP into new ATP through coupled luciferase/luciferin, and ATP is converted into optical signal by Ultr-GloTM luciferase, which can be detected by Envision. The intensity of the light signal is proportional correlated with the amount of ADP produced in the kinase reaction, therefore, the activity of MNK1 kinase can be determined. In this experiment, the group without protein was used as a negative control (100% inhibition). The group with protein but without compounds was used as a positive control (0% inhibition).

Experiment [2] concerns MV-4-11 cells. Description: MV-4-11 cell proliferation inhibition assay (CellTiter-Glo luminescent cell viability). Format: cell-based. The settings on record: Homo sapiens, MV4-11, 120 hours, CTG readout, 8 concentration points. How it is done: MV-4-11 Cell Proliferation Inhibition Assay:
The effect of the compounds of the present invention on the proliferation of MV-4-11 cells was evaluated using a luminescent cell viability assay.
The experimental methods are summarized as follows:
The cell proliferation status of MV-4-11 was detected using the CellTilter-Glo (CTG) assay kit: the luminescence signal generated in the assay is proportional to the number of viable cells in the culture medium by using a unique, stable luciferase to detect viable cell metabolism indicator ATP.
CellTilter-Glo reagent (Promega, G7572) consists of CellTilter-Glo lyophilized powder and ellTilter-Glo buffer, which can be used to dissolve the lyophilized powder into the buffer.
MV-4-11 cells (ATCC #CRL-9591, purchased from Nanjing Kezhen, item number CBP60522) were cultured in IMDM complete medium (Thermofisher, 12440053) containing 10% FBS (GBICO, 10099-141) and 100 units/ml streptomycin mixture (Thermofisher, 15140122). when the cells coverage rearched 80-90% in the culture container, dilute and plant with 0.25% trypsin (including EDTA) (Thermofisher, 25200056) in a white 384-well plate (Thermofisher, 164610), 400 cells per well (36 μl […] complete medium), then 384-well plates were incubated overnight (18-20 hours) in a 37° C., % CO2 incubator.
Compounds were solubilized to 10 mM in 100% DMSO, then sequentially diluted in 4-fold with DMSO to a minimum concentration of […], and each concentration was diluted 50-fold with FBS-free IMDM medium. If the compound IC50 value is very low, the initial concentration of the compound can be lowered. 4 μl of the diluted IMDM compound was added to each well and mixed gently by centrifugation. The GI50 (50% Growth Inhibition) of the compounds was determined in this experiment, including the T0 group before the cell proliferation (including the T0 positive and T0 negative control groups), and the T5 group after 120 hours of cell proliferation (containing the T5 positive and T5 negative control groups).). T0 represents the number of cells before cell proliferation before compound addition, including positive control: the group with the addition of cells and 0.2% DMSO was used as the positive control. The group with medium alone was used as the negative control, T0 group before the addition of compound will be used for CTG test. […] Gently shake for 5 minutes to ensure sufficient cell lysis, leave for 10 minutes to stabilize the luminescence signal, and then read the luminescence signal with EnVision (Perkin Elmer).
The inhibition of MV-4-11 cell proliferation of the compounds was calculated by the following formula: […]
The IC50 value of the compound was calculated from the 8 concentration points by XLfit (ID Business Solutions Ltd., UK) software using the following formula: […]
Background: In ATP-based viability assays light output follows the ATP content of the culture.

Molecules are shown by their SMILES. Structures can show the parent of a compound that is named as a salt.

T1 sequence (Q9BUB5 whole entry): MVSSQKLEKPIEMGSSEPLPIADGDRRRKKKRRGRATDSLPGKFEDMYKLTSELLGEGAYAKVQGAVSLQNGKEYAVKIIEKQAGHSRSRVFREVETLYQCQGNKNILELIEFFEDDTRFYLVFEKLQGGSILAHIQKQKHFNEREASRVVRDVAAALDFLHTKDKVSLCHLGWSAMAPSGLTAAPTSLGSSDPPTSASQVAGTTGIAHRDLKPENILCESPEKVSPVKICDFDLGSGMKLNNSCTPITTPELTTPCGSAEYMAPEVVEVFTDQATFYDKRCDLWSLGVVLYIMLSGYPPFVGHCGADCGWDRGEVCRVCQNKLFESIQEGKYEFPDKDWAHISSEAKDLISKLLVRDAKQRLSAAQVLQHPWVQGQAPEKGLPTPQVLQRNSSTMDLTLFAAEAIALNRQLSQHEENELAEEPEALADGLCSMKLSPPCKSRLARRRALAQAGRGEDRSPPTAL

Consider `COc1cc2[nH]ncc2cc1Nc1cc(NC(=O)C2CC2)ncn1` [Compound 4, 5-(6-Cyclopropionamidopyrimidin-4-ylamino)-6-methoxy-1H-indazole], for which the 50% inhibitory concentration (IC50) (as a rule, the point on the concentration scale where inhibition reaches its midpoint) in experiment [1] was 0.00145 µM; in experiment [2], 0.301 µM. On to `COc1c(Nc2cc(Nc3ccccn3)ncn2)ccc2c1CNC2=O` [Compound 68, 5-((6-(Pyridin-2-ylamino)pyrimidin-4-yl)amino)-4-methoxyisodihydroindol-1-one], for which the IC50 was found to be 0.0082 µM in experiment [1] and 0.295 µM in experiment [2]. In the case of `COc1c(Nc2cc(Nc3cnccn3)ncn2)ccc2c1CNC2=O` [Compound 84, 5-((6-(Pyrazin-2-ylamino)pyrimidin-4-yl)amino)-4-methoxyisodihydroindol-1-one formate], the 50% inhibitory concentration (IC50) was 0.005 µM in experiment [1] and 0.278 µM in experiment [2]. For `COc1c(Nc2cc(NC(=O)C3CC3)ncn2)ccc2c1CNC2=O` [Compound 67, 5-((6-Cyclopropanamidopyrimidin-4-yl)amino)-4-methoxyisodihydroindole-1-one] the same measures were 0.0027 µM and 0.483 µM. Turning to `COc1cc2c(cc1Nc1cc(NC(=O)C3CC3)ncn1)ncn2C(=O)OC(C)(C)C` [Compound 60, 1-tert-butoxycarbonyl-5-(6-cyclopropionamidopyrimidin-4-ylamino)-6-methoxybenzimidazole], the IC50 in experiment [1] turned out to be 0.792 µM. `COCCOc1cncnc1Nc1cc2cn[nH]c2cc1OC` [Compound 53]: the half-maximal inhibitory concentration (IC50) in experiment [1] worked out at 0.0228 µM. As to `COc1cc2[nH]ncc2cc1Nc1ncnc(N)c1C(=O)O` [Compound 39, 5-((6-Amino-5-carbonylpyrimidin-4-yl)amino)-6-methoxy-1H-indazole formate], the IC50 in experiment [1] came out at 0.013 µM.

For the compound `COc1cc2c(cnn2C(=O)C(C)C)cc1Nc1cc(NC(=O)C2CC2)ncn1` [Compound 13, 1-Isobutyryl-5-(6-cyclopropionamidopyrimidin-4-ylamino)-6-methoxyindazole], the 50% inhibitory concentration (IC50) in experiment [1] was 0.225 µM.

Regarding `COc1c(Nc2cc(Nc3ccncn3)ncn2)ccc2c1CNC2=O` [Compound 70, 5-((6-(Pyrimidin-4-ylamino)pyrimidin-4-yl)amino)-4-methoxyisodihydroindol-1-one], in experiment [1], the IC50 is 0.017 µM. As to `COc1cc2[nH]ncc2cc1Nc1ncnc(N)c1C1=CCC(C(=O)N(C)C)CC1` (centres unmarked) [Compound 34, 4-(4-Amino-6-((6-methoxy-1H-indazol-5-yl)amino)pyrimidin-5-yl)-N,N-dimethylcyclohex-3-ene-1-carboxamide formate], the IC50 in experiment [1] came to 0.45 µM. The same measure, in the same setting: under `COc1cc2[nH]ncc2cc1Nc1ncnc(N)c1C1=CCC(C(=O)N2CCN(C)CC2)CC1` (centres unmarked) [Compound 33, 5-((6-Amino-5-cyclohex-3-en-1-yl (4-methylpiperazin-1-yl)methanylpyrimidin-4-yl)amino)-6-methoxy-1H-indazole formate] stands 0.0947 µM. On to `COc1c(Nc2cc(N)ncn2)ccc2c1CNC2=O` [Compound 66, 5-((6-Aminopyrimidin-4-yl)amino)-4-methoxyisoindolin-1-one hydrochloride], for which the IC50 in experiment [1] was found to be 0.0385 µM.

For the compound `CCOC(=O)c1c(N)ncnc1Nc1cc2cn[nH]c2cc1OC` [Compound 36, 5-((6-Amino-5-ethoxycarbonylpyrimidin-4-yl)amino)-6-methoxy-1H-indazole dicarboxylate], in experiment [1], the IC50 was 0.0078 µM. On to `COc1cc2[nH]ncc2cc1Nc1cc(-n2ccnc2)ncn1` [Compound 65, N-(6-(1H-Imidazol-1-yl)pyrimidin-4-yl)-6-methoxy-1H-indazol-5-amine formate], for which the IC50 in experiment [1] was found to be 0.694 µM. For the compound `CCOC(=O)c1c(NC(C)=O)ncnc1Nc1cc2cnn(C(=O)OC(C)(C)C)c2cc1OC` [Compound 37, 1-tert-Butoxycarbonyl-5-((6-(acetylamino)-5-ethoxycarbonylpyrimidin-4-yl)amino)-6-methoxyindazole], the IC50 in experiment [1] is 0.0238 µM. Regarding `COc1cc2[nH]ncc2cc1Nc1ncnc(N)c1C(=O)N(C)C` [Compound 40], the IC50 in experiment [1] was 1.14 µM.
